From patent US6800761B1, “Form of irbesartan, methods for obtaining said form and pharmaceutical compositions containing same” (Sanofi-Synthelabo, priority 1998, dated 2004)
Read-outs that look alike come from different tables or passages of the source.

Tests used:
[1] = for packing density: Hosokawa machine, 180 gravity drops
[2] = as indicated in EP 708 103; cited from earlier work
[3] = for flowability index: Carr method: compressibility, angle of repose, spatula angle, cohesion
Method: The flowability index is calculated by the Carr method (R. Carr: Chemical Engineering, Jan. 18, 1965, page 163-168) and takes into account the results of four experimental values: compressibility, angle of repose, spatula angle and cohesion.

[4] = brick habit versus acicular habit

SMILES | packing density ([1]; listed as crystals of the acicular form A) | stability and hygroscopicity of the crystals [2] | flowability index ([3]; listed as crystals of acicular habit) | packing density ([1]; listed as irbesartan crystals having the new crystal habit) | increase in the packing density with respect to the acicular habit [1, 4] [%] | flowability index ([3]; listed as crystals of brick habit) | increase in the flowability index with respect to the acicular habit [3, 4] [%]
CCCCC1=NC2(CCCC2)C(=O)N1Cc1ccc(-c2ccccc2-c2nnn[nH]2)cc1 [crystals of irbesartan in acicular form A] [2-n-butyl-4-spirocyclopentane-1-[(2′-(tetrazol-5-yl)biphenyl-4-yl)methyl]-2-imidazolin-5-one, reference compound] | about 0.35 kg/M^3 | stable, non-hygroscopic | about 10 | – | – | – | –
CCCCC1=NC2(CCCC2)C(=O)N1Cc1ccc(-c2ccccc2-c2nnn[nH]2)cc1 [irbesartan crystals in the brick habit, 2-n-butyl-4-spirocyclopentane-1-[(2′-(tetrazol-5-yl)biphenyl-4-yl)methyl]-2-imidazolin-5-one] | – | – | – | about 0.5 kg m^3 | 50 | about 30 | 50
